Where two headings read alike, the source gives them in different places.
What was measured:
[1] = IV pharmacokinetics in C57BL/6 mice (plasma and brain); format: in vivo, mouse; details: for Kp: brain/plasma, 10 mg/kg; for half-life: read-out: Terminal half life
Experimental: Pharmacokinetics: Methods: Chembridge Compound 6037874 (“Yan7874”) was provided as a powdered stock and dissolved in DMSO at 50 mg/ml. The compound was formulated as 5% DMSO/5% Cremaphor EL/90% 5% dextrose, pH 7.2 such that compound could be administered to mice at 10-20 mg/kg in a volume of 0.2 ml by IV bolus.
The mice were sacrificed in groups of three by inhalation overdose of CO2 and blood and brain obtained. Plasma was subsequently isolated from the […] by centrifugation in a refrigerated microcentrifuge at 10,000 rpm for 10′. The brain was washed extensively with PBS, blotted dry, weighed, and snap frozen in liquid nitrogen.
An analytical method was developed to detect Yan7874 using LC/MS/MS.
A standard curve was developed in plasma in the following manner. 100 μl of plasma is spiked with varying concentrations of Yan7874. The plasma is allowed to sit 10′ at room temperature after vortexing. 200 μl of acetonitrile is added to precipitate plasma proteins and release bound drug. After vortexing, the sample is incubated 10′ at room temperature. 700 μl of PBS is added and the sample is centrifuged at 14,000 rpm in a standard microcentrifuge for 5′. 900 μl of supernatant is added to 1 ml of PBS. The entire sample is passed over a Waters OASIS HLB solid phased extraction column already primed by addition of 2 ml methanol and 2 ml H2O. The column is washed once with 2 ml of 5% methanol/2% NH4OH in H2O and once with 2 ml of 5% methanol/2% acetic acid in H2O and compound is eluted by addition of 2 ml of methanol containing 2% NH4OH. 500 μl of this is added to 500 μl of H2O containing 0.2% formic acid (final formic acid 0.1%). Samples are prepared in the same manner without addition of spiked compound. Brain tissue is prepared by homogenizing in 3× volume of PBS (weight in grams×3=volume in ml to add). 100 μl of blank brain lysate is used for preparation of standard curve samples while 100 μl of sample brain lysate is used for preparation of samples. To calculate brain levels, the concentration in ng/ml calculated from the standard curve is multiplied by the total volume of lysate (a value in ml estimated from the 3× volume of PBS added +1× volume to account for brain tissue itself) and then divided by the weight of the brain in grams. A value of 3× above the signal obtained from blank plasma or brain lysate is designated the limit of detection (LOD). The LOD for plasma is 2640 and for brain 459. The limit of quantitation (LOQ) is the lowest concentration at which back calculation yields a concentration within 20% of theoretical. The LOQ for both plasma and brain is 5 ng/ml. In general back calculation of points on both curves yielded values within 20% of theoretical over 4 orders of magnitude (10,000 to 5 ng/ml) for both sample types.

[2] = biological target: T1, OX2R (Homo sapiens, UniProt O43614); assay: NFAT-luciferase transcriptional reporter assay in transiently co-transfected HEK293T cells; format: cell-based; set-up: expressed in transfected cells; host or cells: HEK293T cells, transient co-transfection
T1 sequence (O43614 1-444): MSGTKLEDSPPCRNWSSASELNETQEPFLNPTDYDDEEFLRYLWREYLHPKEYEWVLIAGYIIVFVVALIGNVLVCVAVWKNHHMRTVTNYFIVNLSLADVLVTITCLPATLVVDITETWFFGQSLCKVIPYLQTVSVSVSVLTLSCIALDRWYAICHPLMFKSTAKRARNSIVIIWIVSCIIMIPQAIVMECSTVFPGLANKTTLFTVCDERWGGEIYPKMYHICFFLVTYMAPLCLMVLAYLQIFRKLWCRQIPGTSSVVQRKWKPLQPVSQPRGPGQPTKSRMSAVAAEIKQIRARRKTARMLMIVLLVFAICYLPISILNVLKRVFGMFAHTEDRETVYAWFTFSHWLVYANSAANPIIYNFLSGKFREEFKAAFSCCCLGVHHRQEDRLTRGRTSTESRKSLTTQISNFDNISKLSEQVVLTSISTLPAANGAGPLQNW

[3] = IP pharmacokinetics in C57BL/6 mice (plasma and brain); format: in vivo, mouse; details: 30 mg/kg IP, one of the two mice
[4] = male, C57BL/6, mouse, IV 10 mg/kg, brain
[5] = male, C57BL/6, mouse, IV 10 mg/kg, plasma

Cc1ccc(Cn2c(=N)n(CC(O)c3ccc(Cl)c(Cl)c3)c3ccccc32)cc1 (stereo not drawn) [Compound 130699]
acute reaction after injection ([1]; 10 mg/kg IV): no acute reactions were noted | time after dosing at which peak brain levels achieved ([1]; 10 mg/kg iv): 30 min | peak levels in brain tissue ([1]; 10 mg/kg iv, 30 minutes after dosing): ~2.5 µg/g | brain penetration ([1]; 10 mg/kg iv, mice): good brain penetration | acute reaction after injection ([1]; 20 mg/kg IV, first two mice): relatively severe reaction marked by a mild seizure and reduced activity for several hours | AUC ([1]; IV 10 mg/kg, brain): 485,627 min*ng/g | Clearance ([1]; IV 10 mg/kg, brain): 0.4 g/min | Kp ([1]; male, C57BL/6, mouse, intravenous, 10 mg/kg iv, read-out: peak brain concentrations relative to peak levels in plasma): ~5 | Kp ([1]; male, C57BL/6, mouse, iv, IV 10 mg/kg, read-out: Blood Brain Penetration Ratio: AUC brain/AUC plasma): 5.2 | Kp ([1]; male, C57BL/6, mouse, iv, IV 10 mg/kg, read-out: Blood Brain Penetration Ratio: Cmax brain/Cmax plasma): 4.8 | concentration at 24 h ([1]; male, C57BL/6, mouse, brain, 10 mg/kg iv, 24 hours, read-out: brain levels persisting at 24 hours post-injection): 5 ng/g | Cmax [1, 4]: 2480 ng/g | half-life [1, 4]: 3.12 h | Cmax [1, 5]: 512 ng/mL | AUC ([1]; male, C57BL/6, mouse, IV 10 mg/kg, plasma, read-out: AUC (area under the concentration-time curve) (converted)): 1530 ng·h/mL | Clearance ([1]; male, C57BL/6, mouse, IV 10 mg/kg, plasma, read-out: Clearance): 2.1 mL/min | half-life [1, 5]: 1.52 h | activation in transcriptional reporter assays ([2]; HEK293T cells, NFAT-luciferase reporter plasmid and receptor cDNA plasmid): dramatic activation | Fold Induction, OX2R_NFTA (1) ([2]; assay (1)): 10.94 | Fold Induction, OX2R_NFTA (2) ([2]; assay (2)): 35.566 | acute reaction after injection [3]: abdominal guarding and decreased activity for up to one hour
